Results on eleven compounds are retold here after patent publication US7183302B2, “Iminothiazolidinones as inhibitors of HCV replication” (priority 2002, dated 2007).

Read-outs that look alike come from different tables or passages of the source. Some results are limits rather than exact numbers.

Data set [1] concerns HCV replicon (HCV 1b-377-neo replicon cells). Description: HCV replicon cell line and FRET assay. The format is cell-based.
Data set [2] relates to HCV replicon. The data set can be described thus: Western analysis of NS3 in replicon cells. Type of data set: cell-based. As to the method: EC50 values were also determined by Western analysis performed according to the instructions for Chemiluminescence Immunology Kit (Cat# NEL105) Amersham, Arlington Heights, Ill. using a Molecular Dynamics Storm 860 phosphoimager and associated software. Experiments were done in duplicate. The primary and secondary antibody dilutions were at 1 to 5,000. Antisera was generated by immunizing rabbits with purified NS3 protease made from an E. Coli expression vector encoding the first 181 amino acids of HCV 1a NS3 with subsequent boosts. Bleeds were tested weekly and boosts continued until a positive signal on a control western was seen. Secondary antibody was a BioRad (#170-6515) Goat anti-Rabbit IgG HRP Conjugate (Cat# 170-6515) BioRad, Hercules, Calif. The protein samples for western analysis were from the same wells used for the FRET assay and were prepared by the addition of an equal volume of 2×SDS-PAGE buffer to the FRET assay mixture, heating and loading on a 10% gel for SDS-PAGE. Interferon alpha (Cat# I-4276) Sigma, St. Louis, Mo. (IFN-α) was obtained and stored as recommended.

Data set [3] concerns HCV replicon. Description: HCV RNA detection by RT-PCR in replicon cells.
Data set [4] has as its system Compound 1-r replicon cells (HCV 377-neo). Description: FRET assay on selected Compound 1-r replicon cells. The format is cell-based. To be noted: initial test. The method, then:
HCV 377-neo replicon cells were plated in 100-mm plates with ˜25% confluence after 24 hr seeding. Compound 1 was added at the final concentrations of 5, 10 and 20 μM in the presence of G418. Wild type replicon cells in the absence of the compound were used as a control. After 5–6 weeks, both wt replicon cells and selected cells were tested for their sensitivity to Compound 1. In addition, cell lines derived from individual colonies from different concentrations of selective Compound 1 were also isolated, expanded and tested. In the initial test, approximately 60-fold resistance, judged by the FRET assay, was observed between wt replicon cells and selected replicon cells (designated as Compound 1-r replicon cells).

The subject of data set [5] is Y > H replicon cells (Huh-7). Description: Alamar blue CC50 on Y > H replicon cells.
Data set [6] concerns HCV 1b-377-neo replicon cells (Huh-7). The data set can be described thus: Alamar blue conversion (cellular toxicity, CC50), wild-type replicon cells. The format is cell-based.
Data set [7] relates to wild-type HCV 377-neo replicon in Huh-7 cells. The data set can be described thus: Colony formation under G418 selection, wild-type replicon RNA.
For data set [8], the system named is Y2065C Blast/Luciferase HCV replicon. Type of data set: cell-based, HCV 1b.
Data set [9] has as its system wild-type Blast/Luciferase HCV replicon. The format is cell-based, HCV 1b.
The mark [10] stands for this setting: Hepatitis C virus, HCV replicon cell line, FRET assay, read-out: Replicon Inhibition Range EC50.
Setting [11] is: HCV replicon cell line, FRET assay, read-out: Replicon Inhibition Range EC50.

Consider `O=C(Nc1ccc(C2S/C(=N\c3ccc(N4CCOCC4)cc3)N(Cc3cccnc3)C2=O)cc1)[C@@H]1CCCN1C(=O)OCc1ccccc1` (stereo partly shown) [Compound 94], for which the EC50 in data set [1] (setting [10]) was less than 100 nM.
Turning to IFN-α, the EC50 is 1.9 units of IFN-α per milliliter in data set [2], 5.3 units of IFN-α per milliliter in data set [3] and 2.9 units of IFN-α per milliliter in data set [1] (FRET).
In the case of `CC(C)(C)/N=C1\SC(c2ccc(NC(=O)[C@@H]3CCC(=O)N3C(=O)OCc3ccccc3)cc2)C(=O)N1Cc1ccccn1` (stereo partly shown) [Compound 90], the EC50 in data set [1] (setting [10]) is 100 to 1000 nM.
Consider `O=C(Nc1ccc(C2S/C(=N\c3ccc(N4CCOCC4)cc3)N(Cc3cccnc3)C2=O)cc1)[C@@H]1CCCN1C(=O)OCc1ccccc1` (stereo partly shown) [Compound 81], for which the EC50 in [1] (setting [11]) lay in the range of 100 to 1000 nM; in data set [1] (Hepatitis C virus, 72 h, FRET assay, read-out: EC50 in monotherapy), 9 to 11 nM.
In the case of `C[C@H](NC(=O)OCc1ccccc1)C(=O)Nc1ccc(C2S/C(=N\c3ccc(N4CCOCC4)cc3)N(c3ccccn3)C2=O)cc1` (stereo partly shown) [Compound 93], the EC50 in data set [1] (setting [10]) was in the range of 100 to 1000 nM.
In the case of `O=C(Nc1ccc(C2S/C(=N\c3cccc(Oc4ccccc4)c3)N(Cc3ccco3)C2=O)cc1)[C@@H]1CCCN1C(=O)OCc1ccccc1` (stereo partly shown) [Compound 34], in data set [1] (setting [10]), the EC50 is 100 to 1000 nM.
Turning to `C[C@H](NC(=O)OCc1ccccc1)C(=O)Nc1ccc(C2S/C(=N\c3cccc(F)c3)N(Cc3ccco3)C2=O)cc1` (stereo partly drawn) [Compound 1, (1S-(4-[2-(3-Fluorophenylimino)-3-furan-2-ylmethyl-4-oxo-thiazolidin-5-yl]-phenylcarbamoyl)ethyl)carbamic acid benzyl ester], the “resistance between wt replicon cells and selected replicon cells” value in [4] is reported as “approximately 60 fold”. Also, the CC50 in [5] and in [6] was more than 5000 nM each time. The same compound returned a Number of colonies in [7] (Wild-type RNA transfected, 2 μM Compound 1, 3 weeks G418 selection) of 3. Also, the “reduction in colony number” value in data set [7] (wild-type replicon RNA, 2 μM Compound 1) came out at 95%.
For `C[C@H](NC(=O)Cc1ccccc1)C(=O)Nc1ccc(C2S/C(=N\c3cccc(F)c3)N(Cc3ccco3)C2=O)cc1` (stereo partly drawn) [Compound 124, (N-{4-[2-(3-fluorophenylimino)-3-furan-2-ylmethyl-4-oxo-thiazolidin-5-yl]phenyl}-2S-(phenylacetylamino))propionamide], the decrease in replication in data set [8] (Y2065C replicon, 0.5 μM Compound 124) is recorded as 10–15%. For the same compound, the “rlu 48 h” value in data set [8] (Y > C clone, 0.5 μM 124, 48 h) is reported as 7186 rlu; in data set [9] (wt clone, 0.5 μM 124, 48 h) it was 3237 rlu. Besides, the “rlu 72 h” value in data set [8] (Y > C clone, 0.5 μM 124, 72 h) is recorded as 9696 rlu; in [9] (wt clone, 0.5 μM 124, 72 h), 3184 rlu. Besides, the CC50 in data set [5] and in [6] was more than 5000 nM in each case. Moreover, the “replication of the wild-type replicon” value in [9] (0.5 μM Compound 124) is listed as “completely inhibited”.
For `C[C@H](NC(=O)OCc1ccccc1)C(=O)Nc1ccc(C2S/C(=N\c3ccc(C(F)(F)F)cc3)N(Cc3ccco3)C2=O)cc1` (stereo partly shown) [Compound 62], in [1] (setting [11]), the EC50 lay in the range of 1000 to 5000 nM.
For the compound `C[C@H](NC(=O)OCc1ccccc1)C(=O)Nc1ccc(C2S/C(=N\c3ccc(N4CCOCC4)cc3)N(Cc3ccccn3)C2=O)cc1` (stereo partly shown) [Compound 80], the EC50 in [1] (setting [11]) is 100 to 1000 nM.
Take `O=C(Nc1ccc(C2S/C(=N\c3cccc(F)c3)N(Cc3ccco3)C2=O)cc1)[C@@H]1CCCN1C(=O)Cc1ccccc1` (stereo partly shown) [Compound 127]: the EC50 in [1] (setting [10]) was less than 100 nM.
